This note sets out measurements from patent US20100317672A1, “Monomaleate Monohydrate Salt of a 5HT1A Receptor Antagonist” (GLAXO GROUP LIMITED, priority 2008, published 2010).

Series [1] can be described thus: hygroscopicity of the dihydrochloride salt (stated in words, no method). Type of series: physicochemical. Conditions: shows variable stoichiometry.
Series [2] can be described thus: solubility of the free base (stated in words, no method). Particulars: said to be therefore not readily bioavailable. Type of series: physicochemical.
The next series addresses T1, 5-HT1A receptor (Homo sapiens, UniProt P08908).
T1 sequence (P08908 1-422): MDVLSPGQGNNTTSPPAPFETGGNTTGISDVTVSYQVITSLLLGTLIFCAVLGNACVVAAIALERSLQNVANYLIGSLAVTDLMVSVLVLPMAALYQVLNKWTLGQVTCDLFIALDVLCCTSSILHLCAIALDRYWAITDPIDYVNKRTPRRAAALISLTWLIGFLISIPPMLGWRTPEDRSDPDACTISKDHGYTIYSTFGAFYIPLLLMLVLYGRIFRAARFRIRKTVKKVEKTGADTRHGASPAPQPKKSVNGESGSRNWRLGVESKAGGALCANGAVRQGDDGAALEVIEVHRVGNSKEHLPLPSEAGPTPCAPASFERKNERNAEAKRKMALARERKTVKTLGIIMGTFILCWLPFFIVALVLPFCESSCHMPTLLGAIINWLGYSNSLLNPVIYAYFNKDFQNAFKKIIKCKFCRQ
The series can be described thus: antagonism of the 5-HT1A receptor (stated in words, no method). Type of series: biochemical.

The target in the next series is 5-HT1B receptor (Homo sapiens, UniProt P28222). Put plainly: antagonism of the 5-HT1B receptor, selectivity comparison (stated in words, no method). Type of series: biochemical. Conditions: better antagonist of 5-HT1A than of 5-HT1B.

Counter-ions that a name gives are not always drawn.

Chain of 5-HT1B receptor (P28222 whole entry): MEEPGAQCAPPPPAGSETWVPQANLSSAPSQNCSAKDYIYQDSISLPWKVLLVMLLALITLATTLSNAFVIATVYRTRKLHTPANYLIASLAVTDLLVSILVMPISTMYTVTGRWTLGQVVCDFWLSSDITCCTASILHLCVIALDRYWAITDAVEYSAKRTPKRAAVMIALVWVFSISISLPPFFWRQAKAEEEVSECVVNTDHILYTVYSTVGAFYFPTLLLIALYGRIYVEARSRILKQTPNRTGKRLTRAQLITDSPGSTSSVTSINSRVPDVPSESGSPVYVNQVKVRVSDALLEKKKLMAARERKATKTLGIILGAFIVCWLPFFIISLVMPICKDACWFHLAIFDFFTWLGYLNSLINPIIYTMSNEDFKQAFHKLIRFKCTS

In the case of `Cc1ccc2c(N3CCN(CCc4c(C)ccc5c4CCc4c(C(N)=O)ncn4-5)CC3)cccc2n1` [dihydrochloride salt, 7-methyl-6-{2-[4-(2-methyl-5-quinolinyl)-1-piperazinyl]ethyl}-4,5-dihydroimidazo[1,5-a]quinoline-3-carboxamide], in series [1], the hygroscopicity result is on record as “hygroscopic”.
Take `Cc1ccc2c(N3CCN(CCc4c(C)ccc5c4CCc4c(C(N)=O)ncn4-5)CC3)cccc2n1` [free base, 7-methyl-6-{2-[4-(2-methyl-5-quinolinyl)-1-piperazinyl]ethyl}-4,5-dihydroimidazo[1,5-a]quinoline-3-carboxamide]: in series [2], the solubility entry is recorded as “insoluble”.
Consider `Cc1ccc2c(N3CCN(CCc4c(C)ccc5c4CCc4c(C(N)=O)ncn4-5)CC3)cccc2n1.O.O=C(O)/C=C\C(=O)O` [salt of the invention, 7-methyl-6-{2-[4-(2-methyl-5-quinolinyl)-1-piperazinyl]ethyl}-4,5-dihydroimidazo[1,5-a]quinoline-3-carboxamide monomaleate monohydrate], for which the “antagonist of the 5-HT1A receptor” value on 5-HT1A receptor is “effective antagonist”. Besides, the “selectivity for the 5-HT1A receptor over the 5-HT1B receptor” value at 5-HT1B receptor was “high selectivity”.
